# Data reported in US20020137780A1, “Differentiating agents for the treatment of inflammatory intestinal diseases” (priority 1995, published 2002).
# What was measured:
# IL-8 mRNA = experiment: Inhibition of IL-1β stimulated IL-8 gene expression in Caco-2 cells (Northern blot); assay type: cell-based
# Description: Caco-2 cells (American Type Culture Collection, Rockville, Maryland) were plated at a density of 4×10^4 cells per cm^2 in 10 cm dishes containing Dulbecco's modified Eagle's medium (DMEM) with 10% fetal bovine serum and penicillin/streptomycin as described by Wu et al., J. Biol. Chem., 1992, 267:7863-7870 and Traber et al., Mol. Cell. Biol., 1992, 12:3614-3627. At days 5 (pre-confluent state) and 18 (post-confluent state) the cells were stimulated with complete medium containing 5 ng/ml of IL-1β (R and D Systems, Minneapolis, MN). Total RNA was isolated from these cells 2 and 4 hours after the addition of IL-1 containing medium as well as from a control cell population not treated with IL-1β in accordance with procedures described by Chomczynski, P. and Sacchi, N., Anal. Biochem., 1987, 162:156-159. Ten micrograms of RNA for each sample was electrophoretically separated, transferred to a nylon membrane, and UV crosslinked in accordance with procedures described by Traber et al., Am. J. Physiol., 1992, 262:G123-G130. A cDNA probe for IL-8 was prepared by RT-PCR of total RNA from Caco-2 cells stimulated with IL-1 for 2 hours. Random hexamers were used for reverse transcription of the RNA using reaction conditions similar to those described by Wu et al., Gastroenterology, 1993, 105:837-844. A 277 bp cDNA was amplified from the RT reaction by PCR using the 5′ primer IL-8(+103) and the 3′ primer IL-8(EX4), cloned using a TA-vector (Marchuk et al., Nuc. Acids Res., 1991, 19:1154), and labeled with ^32p using a Random Primers DNA labeling System (Gibco BRL, Gaithersburg, Md.). Hybridization of the Northern blots were performed using conditions as described by Huang et al., Mol. Endo., 1993, 7:1391-1398.
# [1] = test system: murine erythroleukemia cells; conditions: in vitro; cited from earlier work
# [2] = orally or intraperitoneally, 26.5 mmole/kg; cited from earlier work
# [3] = e.g. six premature infants fed butyrates for 4 days at about 20 mmol/kg/day; cited from earlier work
# cell proliferation = conditions: same dose; cited from earlier work
# Caco-2 cells [4] = conditions: concentrations of 10-8 and 10-9; cited from earlier work
# [5] = test system: alkaline phosphatase mRNA; experiment: Induction of alkaline phosphatase mRNA, marker for intestinal epithelial cell differentiation, in Caco-2 cells; assay type: cell-based
# Caco-2 cells [6] = experiment: Caco-2 cell toxicity / cell death during treatment with differentiating agents
compound,measurement,setting,value
CCCC(=O)OCC(COC(=O)CCC)OC(=O)CCC [tributyrin],"concentration giving identical biological response, relative to sodium butyrate","IL-8 mRNA; in vitro, differentiation and inhibition of IL-8 gene expression",one third
same,erythroid differentiation of erythroleukemia,[1],induced
same,potency relative to butyric acid on a molar basis,[1],3- to 4 fold
same,toxicity in mice,[2],No toxicity
same,tolerability in humans,[3],well tolerated
same,effectiveness in inhibiting cell proliferation relative to sodium butyrate,cell proliferation,only as effective as sodium butyrate
"C=C1/C(=C\C=C2/CCC[C@]3(C)[C@@H]([C@H](C)CCCC(C)(C)O)CC[C@@H]23)C[C@@H](O)C[C@@H]1O [1,25-(OH)2D3, 1,25-dihydroxyvitamin D3]",steady state IL-8 mRNA expression,"IL-8 mRNA; concentrations of 10-8 and 10-9, IL-1β 5 ng/ml for 2 hours",decrease
same,Caco-2 cell proliferation,Caco-2 cells [4],inhibit
same,markers of intestinal epithelial differentiation,Caco-2 cells [4],induce
CCCC(=O)O [butyric acid],erythroid differentiation of erythroleukemia,[1],induced
CCC(=O)[O-].[Na+] [sodium propionate],IL-8 mRNA expression,"IL-8 mRNA; sodium propionate 0.1 to 20 mM, IL-1β 5 ng/ml for 2 hours",inhibited IL-8 mRNA expression in a dose dependent fashion
same,alkaline phosphatase mRNA expression,[5]; sodium propionate 0.1 to 20 mM,induction
same,cell toxicity or death,"Caco-2 cells [6]; maximum concentration studied, 20 mM",did not lead to cell toxicity or death
CCCC(=O)[O-].[Na+] [sodium butyrate],concentration of maximal inhibition of IL-8 mRNA expression,"IL-8 mRNA; Caco-2 cells, IL-1β 5 ng/ml for 2 hours",2.5 mM
same,steady state levels of IL-8 mRNA,"IL-8 mRNA; sodium butyrate 0.1 to 2.5 mM, 3 days, IL-1β 5 ng/ml for 2 hours",dose dependent reduction
same,expression of IL-8 mRNA,IL-8 mRNA; sodium butyrate at concentrations higher than 2.5 mM,increased expression
same,mRNA for alkaline phosphatase,[5]; sodium butyrate 2.5 mM,induction
same,concentration causing significant toxicity and cell death,Caco-2 cells [6]; Caco-2 cells,higher than 2.5 mM
same,tolerance by Caco-2 cells / cell death,Caco-2 cells [6]; sodium butyrate 0.1 to 2.5 mM,well-tolerated by Caco-2 cells without any evidence of cell death
phenylacetate,IL-8 mRNA expression,"IL-8 mRNA; phenylacetate 2.5 to 10 mM, IL-1β 5 ng/ml for 2 hours",Dose dependent inhibition
same,Caco-2 cell toxicity,Caco-2 cells [6]; any concentration of phenylacetate studied (2.5 to 10 mM),no evidence of Caco-2 cell toxicity
CCCC(=O)OCC(O)CO (centres unmarked) [monobutyrin],erythroid differentiation of erythroleukemia,[1],induced
same,potency relative to butyric acid on a molar basis,[1],much less potent
